Assay results reported in PMC12486440, “Design, synthesis, and in silico studies of new benzofuran–pyrazole hybrids as multi-kinase inhibitors with potential antiproliferative activity” (RSC Advances, 2025).

How the values were obtained:
EKVX = details: single dose 10 μM; non-small lung carcinoma
SF-295 = details: single dose 10 μM; CNS cancer
MALME-3M = details: single dose 10 μM; melanoma
SR = details: single dose 10 μM; leukemia
SK-MEL-5 = details: single dose 10 μM; melanoma
SN12C = details: single dose 10 μM; renal carcinoma
NCI/ADR-RES = details: single dose 10 μM; ovarian carcinoma
K-562 = details: single dose 10 μM; leukemia
NCI-H522 = details: single dose 10 μM; non-small lung carcinoma
MOLT-4 = details: single dose 10 μM; leukemia
PC-3 = details: single dose 10 μM; prostate carcinoma
OVCAR-5 = details: single dose 10 μM; ovarian carcinoma
T-47D = details: single dose 10 μM; breast carcinoma
SF-268 = details: single dose 10 μM; CNS cancer
HOP-92 = details: single dose 10 μM; non-small lung carcinoma
RPMI-8226 = details: single dose 10 μM; leukemia
[1] = system: NCI 60 cancer cell line panel; test: NCI 60 full panel summary; details: single dose 10 μM; mean over the NCI 60 panel
MCF7 = details: single dose 10 μM; breast carcinoma
M14 = details: single dose 10 μM; melanoma
SNB-19 = details: single dose 10 μM; CNS cancer
BT-549 = details: single dose 10 μM; breast carcinoma
UACC-62 = details: single dose 10 μM; melanoma
SF-539 = details: single dose 10 μM; CNS cancer
MDA-MB-468 = details: single dose 10 μM; breast carcinoma
A498 = details: single dose 10 μM; renal carcinoma
CCRF-CEM = details: single dose 10 μM; leukemia
UO-31 = details: single dose 10 μM; renal carcinoma
NCI-H226 = details: single dose 10 μM; non-small lung carcinoma
CAKI-1 = details: single dose 10 μM; renal carcinoma
HCT-116 = details: single dose 10 μM; colon cancer
HOP-62 = details: single dose 10 μM; non-small lung carcinoma
786–0 = details: single dose 10 μM; renal carcinoma
HL-60(TB) = details: single dose 10 μM; leukemia
ACHN = details: single dose 10 μM; renal carcinoma
TK-10 = details: single dose 10 μM; renal carcinoma
HCT-15 = details: single dose 10 μM; colon cancer
SK-OV-3 = details: single dose 10 μM; ovarian carcinoma
U251 = details: single dose 10 μM; CNS cancer
KM12 = details: single dose 10 μM; colon cancer
HCC-2998 = details: single dose 10 μM; colon cancer
IGROV1 = details: single dose 10 μM; ovarian carcinoma
OVCAR-8 = details: single dose 10 μM; ovarian carcinoma
NCI-H460 = details: single dose 10 μM; non-small lung carcinoma
UACC-257 = details: single dose 10 μM; melanoma
RXF 393 = details: single dose 10 μM; renal carcinoma
HT29 = details: single dose 10 μM; colon cancer
OVCAR-3 = details: single dose 10 μM; ovarian carcinoma
LOX IMVI = details: single dose 10 μM; melanoma
SK-MEL-28 = details: single dose 10 μM; melanoma
SW-620 = details: single dose 10 μM; colon cancer
NCI-H23 = details: single dose 10 μM; non-small lung carcinoma
MDA-MB-435 = details: single dose 10 μM; melanoma
A549/ATCC = details: single dose 10 μM; non-small lung carcinoma
SNB-75 = details: single dose 10 μM; CNS cancer
SK-MEL-2 = details: single dose 10 μM; melanoma
COLO 205 = details: single dose 10 μM; colon cancer
DU-145 = details: single dose 10 μM; prostate carcinoma
OVCAR-4 = details: single dose 10 μM; ovarian carcinoma

**Q.** How did the GI% (EKVX) turn out when “3-(5-(Benzofuran-2-yl)-1-phenyl-1H-pyrazol-3-yl)-1-(3,4-dimethoxyphenyl)prop-2-en-1-one [2c]” was run?
**A.** 0.81%

**Q.** What about the GI% (SF-295) of the same molecule?
**A.** 9.48%

**Q.** What about the GI% (MALME-3M) of the same molecule?
**A.** 5.86%

**Q.** What about the GI% (SR) of the same molecule?
**A.** 17.15%

**Q.** What about the GI% (SK-MEL-5) of the same molecule?
**A.** 1.65%

**Q.** What about the GI% (SN12C) of the same molecule?
**A.** 10.90%

**Q.** What about the GI% (NCI/ADR-RES) of the same molecule?
**A.** 1.79%

**Q.** And the GI% (K-562)?
**A.** 5.48%

**Q.** And the GI% (NCI-H522)?
**A.** 1.92%

**Q.** And the GI% (MOLT-4)?
**A.** 4.38%

**Q.** And the GI% (PC-3)?
**A.** 7.06%

**Q.** And the GI% (OVCAR-5)?
**A.** 0.00%

**Q.** And the GI% (T-47D)?
**A.** 9.23%

**Q.** And the GI% (SF-268)?
**A.** 1.66%

**Q.** What about the GI% (HOP-92) of the same molecule?
**A.** 13.94%

**Q.** What about the GI% (RPMI-8226) of the same molecule?
**A.** 4.63%

**Q.** What about the “Mean GI%” value [1] of the same molecule?
**A.** 2.16%

**Q.** And the GI% (MCF7)?
**A.** 9.78%

**Q.** And the GI% (M14)?
**A.** 1.79%

**Q.** And the GI% (SNB-19)?
**A.** 4.96%

**Q.** And the GI% (BT-549)?
**A.** 16.27%

**Q.** What about the GI% (UACC-62) of the same molecule?
**A.** 4.68%

**Q.** What about the GI% (SF-539) of the same molecule?
**A.** 4.21%

**Q.** And the GI% (MDA-MB-468)?
**A.** 0.93%

**Q.** And the GI% (A498)?
**A.** 6.80%

**Q.** What about the GI% (CCRF-CEM) of the same molecule?
**A.** 8.09%

**Q.** What about the GI% (UO-31) of the same molecule?
**A.** 15.32%

**Q.** And the GI% (NCI-H226)?
**A.** 1.83%

**Q.** And the GI% (CAKI-1)?
**A.** 10.30%

**Q.** And the GI% (HCT-116)?
**A.** 0.17%

**Q.** And the GI% (HOP-62)?
**A.** 4.42%

**Q.** What about the GI% (786–0) of the same molecule?
**A.** 2.44%

**Q.** And the GI% (HL-60(TB))?
**A.** 6.49%

**Q.** And the GI% (ACHN)?
**A.** 0.70%

**Q.** And the GI% (TK-10)?
**A.** 6.22%

**Q.** What about the GI% (HCT-15) of the same molecule?
**A.** 1.66%

**Q.** What about the GI% (SK-OV-3) of the same molecule?
**A.** 11.15%

**Q.** `COc1ccc(C2=NNC(c3cn(-c4ccccc4)nc3-c3cc4ccccc4o3)C2)cc1OC` (stereo not drawn) [3c, 3-(Benzofuran-2-yl)-4-(3-(3,4-dimethoxyphenyl)-4,5-dihydro-1H-pyrazol-5-yl)-1-phenyl-1H-pyrazole] was tested. Which GI% (U251) did it give?
**A.** 60.18%

**Q.** And the GI% (EKVX)?
**A.** 57.67%

**Q.** And the GI% (KM12)?
**A.** 68.12%

**Q.** What about the GI% (HCC-2998) of the same molecule?
**A.** 64.60%

**Q.** And the GI% (IGROV1)?
**A.** 61.79%

**Q.** What about the GI% (SF-295) of the same molecule?
**A.** 58.47%

**Q.** What about the GI% (MALME-3M) of the same molecule?
**A.** 30.46%

**Q.** What about the GI% (SR) of the same molecule?
**A.** 77.33%

**Q.** And the GI% (SK-MEL-5)?
**A.** 74.73%

**Q.** What about the GI% (SN12C) of the same molecule?
**A.** 63.01%

**Q.** And the GI% (K-562)?
**A.** 87.48%

**Q.** What about the GI% (NCI-H522) of the same molecule?
**A.** 51.41%

**Q.** What about the GI% (OVCAR-8) of the same molecule?
**A.** 63.70%

**Q.** And the GI% (MOLT-4)?
**A.** 80.97%

**Q.** And the GI% (PC-3)?
**A.** 66.98%

**Q.** And the GI% (NCI-H460)?
**A.** 81.94%

**Q.** What about the GI% (UACC-257) of the same molecule?
**A.** 45.64%

**Q.** What about the GI% (OVCAR-5) of the same molecule?
**A.** 41.14%

**Q.** And the GI% (T-47D)?
**A.** 81.51%

**Q.** What about the GI% (RXF 393) of the same molecule?
**A.** 36.89%

**Q.** And the GI% (SF-268)?
**A.** 61.15%

**Q.** What about the GI% (HOP-92) of the same molecule?
**A.** 75.25%

**Q.** And the GI% (RPMI-8226)?
**A.** 88.22%

**Q.** And the GI% (HT29)?
**A.** 64.31%

**Q.** What about the GI% (OVCAR-3) of the same molecule?
**A.** 65.22%

**Q.** What about the GI% (LOX IMVI) of the same molecule?
**A.** 65.24%

**Q.** What about the “Mean GI%” value [1] of the same molecule?
**A.** 60.71%

**Q.** What about the GI% (MCF7) of the same molecule?
**A.** 77.82%

**Q.** And the GI% (M14)?
**A.** 63.24%

**Q.** And the GI% (SK-MEL-28)?
**A.** 35.60%

**Q.** And the GI% (SNB-19)?
**A.** 59.83%

**Q.** What about the GI% (UACC-62) of the same molecule?
**A.** 62.47%

**Q.** And the GI% (SF-539)?
**A.** 56.77%

**Q.** And the GI% (MDA-MB-468)?
**A.** 78.06%

**Q.** What about the GI% (A498) of the same molecule?
**A.** 7.63%

**Q.** And the GI% (SW-620)?
**A.** 47.04%

**Q.** What about the GI% (CCRF-CEM) of the same molecule?
**A.** 84.09%

**Q.** What about the GI% (UO-31) of the same molecule?
**A.** 80.36%

**Q.** What about the GI% (NCI-H226) of the same molecule?
**A.** 68.39%

**Q.** What about the GI% (CAKI-1) of the same molecule?
**A.** 76.85%

**Q.** And the GI% (HCT-116)?
**A.** 74.37%

**Q.** What about the GI% (NCI-H23) of the same molecule?
**A.** 53.25%

**Q.** What about the GI% (MDA-MB-435) of the same molecule?
**A.** 65.91%

**Q.** What about the GI% (HOP-62) of the same molecule?
**A.** 33.71%

**Q.** What about the GI% (A549/ATCC) of the same molecule?
**A.** 57.50%

**Q.** What about the GI% (786–0) of the same molecule?
**A.** 52.36%

**Q.** And the GI% (SNB-75)?
**A.** 58.00%

**Q.** What about the GI% (HL-60(TB)) of the same molecule?
**A.** 88.80%

**Q.** What about the GI% (ACHN) of the same molecule?
**A.** 74.84%

**Q.** And the GI% (TK-10)?
**A.** 42.27%

**Q.** What about the GI% (SK-MEL-2) of the same molecule?
**A.** 47.50%

**Q.** And the GI% (HCT-15)?
**A.** 49.94%

**Q.** What about the GI% (SK-OV-3) of the same molecule?
**A.** 32.78%

**Q.** What about the GI% (COLO 205) of the same molecule?
**A.** 47.04%

**Q.** What about the GI% (DU-145) of the same molecule?
**A.** 58.05%

**Q.** And the GI% (OVCAR-4)?
**A.** 58.72%
